ChEMBL document CHEMBL1201862, “PubChem BioAssay data set” (2004)
Values joined by “and” are separate entries in the source; they are usually repeats but may differ in a detail not shown here. Equal values may be shown once.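 Protocol summary: plate cells (96-well), add compound at 5 concentrations, incubate 48 h, interpolate endpoints linearly. GI50 is the concentration that inhibits growth by half.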 Active and inactive are the calls of the source. Cut-off read from the data, not from the text of the source: active = GI50 up to about 1.1 µM and inactive = higher.

Key:
Experiment in all cases: NCI-60 cell line screen, 48 h
[1] = system: BT-549
[2] = system: HL-60
[3] = system: HOP-18
[4] = system: DLD-1
[5] = system: DMS-273
[6] = system: SR
[7] = system: KM-20L2
[8] = system: IGROV-1
[9] = system: SK-MEL-5
[10] = system: LXFL 529
[11] = system: RPMI-8226
[12] = system: UO-31
[13] = system: COLO 205
[14] = system: SK-MEL-28
[15] = system: HCC 2998
[16] = system: ACHN
[17] = system: UACC-62
[18] = system: A549
[19] = system: TK-10
[20] = system: SK-OV-3
[21] = system: SNB-75
[22] = system: SW-620
[23] = system: HCT-116
[24] = system: UACC-257
[25] = system: SNB-19
[26] = system: SF-539
[27] = system: NCI-H23
[28] = system: OVCAR-3
[29] = system: HT-29
[30] = system: NCI-H522
[31] = system: KM12
[32] = system: MOLT-4
[33] = system: M19-MEL
[34] = system: HOP-92
[35] = system: OVCAR-8
[36] = system: NCI-H460
[37] = system: CCRF-CEM
[38] = system: SF-268
[39] = system: NCI-H226
[40] = system: HOP-62
[41] = system: U-251
[42] = system: K562
[43] = system: SF-295
[44] = system: 786-0
[45] = system: NCI/ADR-RES
[46] = system: Hs-578T
[47] = system: DMS-114
[48] = system: EKVX
[49] = system: HCT-15
[50] = system: MCF7
[51] = system: SNB-78
[52] = system: SK-MEL-2
[53] = system: DU-145
[54] = system: M14
[55] = system: PC-3
[56] = system: RXF 393
[57] = system: Malme-3M
[58] = system: OVCAR-4
[59] = system: CAKI-1
[60] = system: A498
[61] = system: LOX IMVI
[62] = system: SN12C
[63] = system: OVCAR-5
[64] = system: XF498

Measured: GI50

Oc1cccc2cccnc12 [OXYQUINOLINE]
active: [2] 251 nM and 457 nM | [6] 453 nM | [10] 0.605 µM | [11] 0.578 µM
inactive: [1] > 80.2 µM | [3] 14.8 µM | [4] 1.47 µM | [5] 2.53 µM | [7] 1.38 µM | [8] 3.14 µM and 4.5 µM | [9] 8.69 µM and 4.93 µM

Nc1c(C(=O)N/N=C/c2ccccc2)sc(=S)n1-c1ccccc1
inactive: [12] > 100 µM | [13] > 100 µM | [14] > 100 µM | [2] > 100 µM | [15] > 100 µM | [16] > 100 µM | [17] > 100 µM | [18] > 100 µM | [3] > 100 µM | [4] > 100 µM | [6] > 100000 nM | [19] > 100 µM | [20] > 100 µM | [21] 8.71 µM | [8] > 100 µM | [22] > 100 µM | [23] > 100 µM | [24] > 100 µM | [25] > 100 µM | [26] 70 µM | [27] > 100 µM | [28] > 100 µM | [29] > 100 µM | [30] > 100 µM | [31] > 100 µM | [9] > 100 µM | [32] > 100 µM | [33] > 100 µM | [34] > 100 µM | [35] > 100 µM | [36] > 100 µM | [37] > 100 µM | [10] > 100 µM | [38] > 100 µM | [39] > 100 µM | [40] > 100 µM | [41] > 100 µM | [42] 3.38 µM | [43] > 100 µM | [11] > 100 µM

Cc1ccc(C)c(NC(=O)CC2Sc3ccccc3NC2=O)c1 (configuration not stated)
inactive: [13] > 100 µM | [44] 18.3 µM and 25.2 µM | [2] > 96.4 µM and > 56.2 µM | [17] 68.9 µM and > 85.5 µM | [3] 25.1 µM and 16.7 µM | [45] > 49 µM | [6] > 46.5 µM and 27.8 µM | [7] > 100 µM and > 96.8 µM | [46] 22.6 µM | [20] 21.2 µM and 22.7 µM | [21] 10.7 µM and 10.4 µM | [8] 20.8 µM and 35.7 µM | [47] 49.5 µM and 30.3 µM | [24] 34.2 µM and > 67 µM | [25] 19.8 µM and 32.7 µM | [48] 75.7 µM and > 70.5 µM | [26] 33.7 µM and 29.4 µM | [32] > 56.2 µM and > 77.3 µM | [50] > 95.5 µM and 62.4 µM | [51] 14.5 µM and 23.1 µM | [52] 30.1 µM and 50.8 µM | [34] 19.1 µM and 11.9 µM | [35] 15.5 µM and 18.6 µM | [37] > 56.2 µM and > 86.3 µM | [53] > 100 µM and > 74.1 µM | [38] 14.7 µM and 26.2 µM | [40] 20.7 µM and 17.6 µM | [41] 15 µM and 27 µM | [42] > 56.2 µM and 68.5 µM | [43] 27.9 µM and 50.1 µM | [54] 51.3 µM | [55] > 89.7 µM and 79.3 µM | [11] > 100 µM and 53 µM
38.7 µM and 61 µM: [49]

CCOC(=O)NC(=O)c1cn(C(CC)COC(=O)NCCCCCCNC(=O)OCC(CC)n2cc(C(=O)NC(=O)OCC)c(=O)[nH]c2=O)c(=O)[nH]c1=O (configuration not stated)
> 100 µM: [49]
inactive: [12] > 100 µM | [13] > 100 µM | [44] > 100 µM | [14] > 100 µM | [2] > 100 µM | [15] > 100 µM | [56] > 100 µM | [16] > 100 µM | [17] > 100 µM | [18] > 100 µM | [3] > 100 µM | [4] > 10 µM | [5] > 100 µM | [7] > 100 µM | [20] > 100 µM | [21] > 100 µM | [57] > 100 µM | [8] > 100 µM | [22] > 100 µM | [47] > 100 µM | [23] > 100 µM | [24] > 100 µM | [25] > 100 µM | [48] > 100 µM | [58] > 100 µM | [59] > 100 µM | [28] > 100 µM | [29] > 100 µM | [30] > 100 µM | [60] > 100 µM | [31] > 100 µM | [9] > 100 µM | [32] > 100 µM | [33] > 100 µM | [51] > 100 µM | [52] > 100 µM | [35] > 100 µM | [36] > 100 µM | [37] > 100 µM | [10] > 100 µM | [61] > 100 µM | [62] > 100 µM | [38] > 100 µM | [39] > 100 µM | [40] > 100 µM | [41] > 100 µM | [42] > 100 µM | [43] > 100 µM | [54] > 100 µM | [11] > 100 µM

O=C(/C=C/c1c(O)ccc2ccccc12)c1ccccc1Cl
inactive: [12] 49.1 µM | [13] 17.8 µM | [44] 60.8 µM | [14] 23 µM | [2] 11.1 µM | [15] > 100 µM | [56] 26.2 µM | [16] 34.3 µM | [17] 15.8 µM | [18] 32.5 µM | [4] 31.1 µM | [5] 34.3 µM | [63] > 100 µM | [7] > 100 µM | [19] > 100 µM | [20] > 100 µM | [21] 25.3 µM | [57] 18.5 µM | [8] 55.5 µM | [22] 24.2 µM | [47] 19.9 µM | [23] 21.2 µM | [24] 19.7 µM | [25] 49.8 µM | [48] 67.9 µM | [58] 39 µM | [26] 26.5 µM | [27] 19.8 µM | [59] 81.5 µM | [28] 26.1 µM | [29] 46.5 µM | [30] 26.7 µM | [60] 82 µM | [64] 23.3 µM | [31] 38.5 µM | [9] 18.2 µM | [32] 33.4 µM | [33] 14 µM | [51] 44.4 µM | [52] 27.7 µM | [34] 23.2 µM | [35] 32 µM | [36] 30.6 µM | [37] 17.3 µM | [10] 31 µM | [61] 24.2 µM | [62] 26.7 µM | [38] 29.3 µM | [39] > 100 µM | [40] 76.6 µM | [41] 37.8 µM | [42] 20.2 µM | [43] 23.2 µM | [54] 18.5 µM | [11] 27.7 µM
36.4 µM: [49]

COc1cc(CNc2cnc3ccc(N)cc3n2)cc(OC)c1OC
> 100 µM: [49]
inactive: [12] > 100 µM | [13] > 100 µM | [44] > 100 µM | [14] > 100 µM | [2] 36.3 µM | [15] 72.4 µM | [56] > 100 µM | [16] > 100 µM | [17] > 100 µM | [18] > 100 µM | [3] > 100 µM | [5] 99.8 µM | [63] > 100 µM | [7] > 100 µM | [19] > 100 µM | [20] > 100 µM | [21] > 100 µM | [57] > 100 µM | [8] > 100 µM | [22] 45.1 µM | [47] > 100 µM | [23] > 100 µM | [24] > 100 µM | [25] > 100 µM | [48] > 100 µM | [58] > 100 µM | [26] > 100 µM | [27] > 100 µM | [59] > 100 µM | [28] > 100 µM | [29] > 100 µM | [30] > 100 µM | [60] > 100 µM | [31] > 100 µM | [9] 71.3 µM | [32] > 100 µM | [33] 66.8 µM | [51] > 100 µM | [52] > 100 µM | [34] > 100 µM | [35] > 100 µM | [36] > 100 µM | [37] > 100 µM | [10] > 100 µM | [61] > 100 µM | [62] > 100 µM | [38] > 100 µM | [39] > 100 µM | [40] > 100 µM | [41] > 100 µM | [42] 36.3 µM | [43] > 100 µM | [54] > 100 µM | [11] 91.4 µM
